These results are taken from ChEMBL document CHEMBL3862032, “Design, Synthesis, and Cytotoxic Evaluation of Novel Tubulysin Analogues as ADC Payloads” (ACS Med Chem Lett, 2016).

Structures are written as SMILES. Where only a bound is given, the exact number is not on record here.

A short description of assay [1]: Cytotoxicity against MDR1 deficient human KB cells assessed as decrease in cell viability after 4 days by MTS assay. Format: functional, cell-based. The conditions noted are these: 96 h. For orientation: Tetrazolium dyes change colour on reduction, which living cells bring about.
The nature of assay [2]: Cytotoxicity against human KB 8.5 cells expressing MDR1 assessed as decrease in cell viability after 4 days by MTS assay. The class given is functional, cell-based. Conditions: KB 8.5, 96 h.
Assay [3] can be described thus: Cytotoxicity against human NCI-N87 cells assessed as decrease in cell viability after 4 days by MTS assay. Format: functional, cell-based. The conditions noted are these: NCI-N87, 96 h.
The next assay relates to KB. The experiment in a line: Resistance ratio of IC50 for human KB 8.5 cells expressing MDR1 to IC50 for MDR1 deficient human KB cells. Format: functional.
Assay [4] can be described thus: Cytotoxicity against human MDA-MB-361/DYT2 cells assessed as decrease in cell viability after 4 days by MTS assay. Format: functional, cell-based. The conditions noted are these: MDA-MB-361, 96 h.

By IC50 is commonly meant the concentration that gives 50% inhibition. Consider `CC[C@H](C)[C@H](NC(=O)[C@H]1CCCCN1C)C(=O)N(C)[C@H](C[C@@H](OC(C)=O)c1nc(C(=O)N[C@H](CNS(C)(=O)=O)Cc2ccccc2)cs1)C(C)C`, for which the IC50 in assay [1] is 0.89 nM; in assay [2] it was 31.7 nM; in assay [3], 0.47 nM; in assay [4], 0.27 nM. The “Ratio IC50” value with KB was determined as 36.
The matching figures for `CC[C@H](C)[C@H](NC(=O)[C@@]1(C)CCCN1C)C(=O)N(C)[C@H](C[C@@H](OC(C)=O)c1nc(C(=O)N[C@@H](Cc2ccccc2)C[C@H](C)C(=O)O)cs1)C(C)C`: 0.11 nM, 1.02 nM, 0.13 nM, 0.07 nM and 9.
Turning to `CC[C@H](C)[C@H](NC(=O)[C@H]1CCCCN1C)C(=O)N(C)[C@H](C[C@@H](OC(C)=O)c1nc(C(=O)N[C@@H](Cc2ccccc2)C[C@H](C)C(=O)OC)cs1)C(C)C`, the IC50 in assay [1] came to 0.22 nM; in assay [2], 0.7 nM; in assay [3] it was 0.32 nM; in assay [4] it was 0.22 nM. Further, the “Ratio IC50” value with KB turned out to be 3.
`CC[C@H](C)[C@H](NC(=O)[C@@]1(C)CCCN1C)C(=O)N(C)[C@H](C[C@@H](O)c1nc(C(=O)N[C@@H](Cc2ccc(N)cc2)C[C@H](C)C(=O)O)cs1)C(C)C`: the IC50 in assay [1] is 769 nM; in assay [2] it was greater than 1000 nM; in assay [3], greater than 1000 nM; in assay [4] it was greater than 1000 nM.
In the case of `CC[C@H](C)[C@H](NC(=O)[C@@]1(C)CCCN1C)C(=O)N(C)[C@H](C[C@@H](OC(C)=O)c1nc(C(=O)N[C@@H](Cc2ccccc2)[C@@H](O)C(=O)OC)cs1)C(C)C`, the IC50 is 6.28 nM in assay [1], 28.4 nM in assay [2], 9.91 nM in assay [3] and 6.09 nM in assay [4]. Further, the “Ratio IC50” value with KB is given as 5.
The matching figures for `CC[C@H](C)[C@H](NC(=O)[C@@]1(C)CCCN1)C(=O)N(C)[C@H](C[C@@H](OC(C)=O)c1nc(C(=O)N[C@@H](Cc2ccccc2)C[C@H](C)C(=O)OC)cs1)C(C)C`: 18.6 nM, 179 nM, 59 nM, 24 nM and 9.
For `CC[C@H](C)[C@H](NC(=O)[C@@]1(C)CCCN1C)C(=O)N(C)[C@H](C[C@@H](OC(C)=O)c1nc(C(=O)N[C@@H](Cc2ccccc2)c2nccs2)cs1)C(C)C`, in that order: 37.9 nM, 104 nM, 29.5 nM, 22 nM and 3.
The matching figures for `CC[C@H](C)[C@H](NC(=O)C(C)(C)N(C)C)C(=O)N(C)[C@H](C[C@@H](OC(C)=O)c1nc(C(=O)N[C@@H](Cc2ccccc2)C[C@H](C)C(=O)OC)cs1)C(C)C`: 4.68 nM, 53.9 nM, 9.76 nM, 3.37 nM and 11.
`CC[C@H](C)[C@H](NC(=O)[C@H]1CCCCN1C)C(=O)N(C)[C@H](C[C@@H](OC(C)=O)c1nc(C(=O)N[C@@H](Cc2ccccc2)C[C@H](C)C(=O)O)cs1)C(C)C`: the IC50 came to 0.33 nM in assay [1], 1.1 nM in assay [2], 0.46 nM in assay [3] and 0.13 nM in assay [4]. The “Ratio IC50” value in the assay on KB turned out to be 3.
For `CC[C@H](C)[C@H](NC(=O)[C@H]1CCCN1C)C(=O)N(C)[C@H](C[C@@H](OC(C)=O)c1nc(C(=O)N[C@@H](Cc2ccccc2)C[C@H](C)C(=O)OC)cs1)C(C)C`, in that order: 1.26 nM, 7.88 nM, 2.88 nM, 0.67 nM and 6.
The matching figures for `CC[C@H](C)[C@H](NC(=O)[C@@]1(C)CCCN1C)C(=O)N(C)[C@H](C[C@@H](OC(C)=O)c1nc(C(=O)N[C@@H](Cc2ccccc2)C[C@H](C)C(=O)OC)cs1)C(C)C`: 1.04 nM, 5.52 nM, 0.89 nM, 0.45 nM and 5.
For `CC[C@H](C)[C@H](NC(=O)[C@@]1(C)CCCN1C)C(=O)N(C)[C@H](C[C@@H](OC(C)=O)c1nc(C(=O)N[C@H](CNS(C)(=O)=O)Cc2ccccc2)cs1)C(C)C`, in that order: 5.32 nM, 93.7 nM, 9.24 nM, 4.9 nM and 18.
Consider `CC[C@H](C)[C@H](NC(=O)[C@@]1(C)CCCN1C)C(=O)N(C)[C@H](C[C@@H](OC(C)=O)c1nc(C(=O)N[C@@H](Cc2ccc(N)cc2)C[C@H](C)C(=O)O)cs1)C(C)C`, for which the IC50 in assay [1] was determined as 0.5 nM; in assay [2], 2.77 nM; in assay [3], 1.11 nM; in assay [4] it was 0.9 nM. For the same compound, the “Ratio IC50” value with KB is 5.
`CCNC(=O)O[C@H](C[C@H](C(C)C)N(C)C(=O)[C@@H](NC(=O)[C@@]1(C)CCCN1C)[C@@H](C)CC)c1nc(C(=O)N[C@@H](Cc2ccc(N)cc2)C[C@H](C)C(=O)O)cs1`: the IC50 in assay [1] amounted to 0.77 nM; in assay [2], 4.53 nM; in assay [3], 1.92 nM; in assay [4] it was 1.94 nM. Further, the “Ratio IC50” value in the assay on KB stood at 6.
The matching figures for `CC[C@H](C)[C@H](NC(=O)[C@@]1(C)CCCN1C)C(=O)N(C)[C@H](C[C@@H](OC(C)=O)c1nc(C(=O)NCCc2cscn2)cs1)C(C)C`: 86.6 nM, 198 nM, 61.3 nM, 33.2 nM and 2.
The matching figures for `CC[C@H](C)[C@H](NC(=O)[C@H]1CCCCN1C)C(=O)N(C)[C@H](C[C@@H](OC(C)=O)c1nc(C(=O)N[C@@H](Cc2ccccc2)[C@@H](O)C(=O)OC)cs1)C(C)C`: 1.21 nM, 13.4 nM, 1 nM, 0.27 nM and 11.
For the compound `CC[C@H](C)[C@H](NC(=O)[C@@]1(C)CCCN1C)C(=O)N(C)[C@H](C[C@@H](OC(C)=O)c1nc(C(=O)NCCn2nnc3ccccc32)cs1)C(C)C`, the IC50 in assay [1] was 11.5 nM; in assay [2] it was 46.3 nM; in assay [3], 11.8 nM; in assay [4] it was 9.05 nM. Further, in the assay on KB, the “Ratio IC50” value is 4.
The matching figures for `CC[C@H](C)[C@H](NC(=O)[C@H]1CCCCN1C)C(=O)N(C)[C@H](C[C@@H](OC(C)=O)c1nc(C(=O)N[C@@H](Cc2ccccc2)C(=O)N2CCCCC2)cs1)C(C)C`: 3.71 nM, 20.1 nM, 6.75 nM, 6.32 nM and 5.
The matching figures for `CC[C@H](C)[C@H](NC(=O)[C@H]1CCCCN1C)C(=O)N(C)[C@H](C[C@@H](OC(C)=O)c1nc(C(=O)NCCn2nnc3ccccc32)cs1)C(C)C`: 1.44 nM, 15.6 nM, 1.23 nM, 0.83 nM and 11.
The matching figures for `CC[C@H](C)[C@H](NC(=O)[C@H]1CCCCN1)C(=O)N(C)[C@H](C[C@@H](OC(C)=O)c1nc(C(=O)N[C@@H](Cc2ccccc2)C[C@H](C)C(=O)OC)cs1)C(C)C`: 2.6 nM, 141 nM, 7.74 nM, 1.68 nM and 54.
`CC[C@H](C)[C@H](NC(=O)[C@H]1CCCCN1C)C(=O)N(C)[C@H](C[C@@H](OC(C)=O)c1nc(C(=O)N[C@@H](Cc2ccccc2)CN2CCOCC2)cs1)C(C)C`: the IC50 stood at 1.02 nM in assay [1], 5.47 nM in assay [2], 0.49 nM in assay [3] and 0.31 nM in assay [4]. In addition, the “Ratio IC50” value in the assay with KB amounted to 5.
For `CC[C@H](C)[C@H](NC(=O)[C@H]1CCCCN1C)C(=O)N(C)[C@H](C[C@@H](OC(C)=O)c1nc(C(=O)N[C@@H](Cc2ccccc2)c2nccs2)cs1)C(C)C`, in that order: 3.57 nM, 13.5 nM, 3 nM, 0.95 nM and 4.
The matching figures for `CC[C@H](C)[C@H](NC(=O)[C@H]1CCCCN1C)C(=O)N(C)[C@H](C[C@@H](OC(C)=O)c1nc(C(=O)NCCc2cscn2)cs1)C(C)C`: 3.69 nM, 17.5 nM, 9 nM, 6.45 nM and 5.
`CC[C@H](C)[C@H](NC(=O)[C@H](NC)C(C)C)C(=O)N(C)[C@H](C[C@@H](OC(C)=O)c1nc(C(=O)N[C@@H](Cc2ccccc2)C[C@H](C)C(=O)OC)cs1)C(C)C`: the IC50 in assay [1] was found to be 1.76 nM; in assay [2], 33.6 nM; in assay [3] it was 0.89 nM; in assay [4], 1.06 nM. Moreover, the “Ratio IC50” value in the assay on KB was 19.
Take `CC[C@H](C)[C@H](NC(=O)[C@@H]1C[C@@H](O)CN1C)C(=O)N(C)[C@H](C[C@@H](OC(C)=O)c1nc(C(=O)N[C@@H](Cc2ccccc2)C[C@H](C)C(=O)OC)cs1)C(C)C`: the IC50 stood at 22.6 nM in assay [1], 788 nM in assay [2], 106 nM in assay [3] and 26.9 nM in assay [4]. For the same compound, in the assay on KB, the “Ratio IC50” value was found to be 35.
Take `CC[C@H](C)[C@H](NC(=O)[C@@]1(C)CCCN1C)C(=O)N(C)[C@H](C[C@@H](OC(C)=O)c1nc(C(=O)N[C@@H](Cc2ccccc2)C(O)c2nccs2)cs1)C(C)C` (mixture of isomers): the IC50 was determined as 8.64 nM in assay [1], 39.4 nM in assay [2], 11.1 nM in assay [3] and 6.39 nM in assay [4]. In addition, the “Ratio IC50” value in the assay on KB was determined as 5.
